Experimental data from patent US7244727B2, “Fused bicyclic nitrogen-containing heterocycles” (Japan Tobacco Inc., priority 2002, dated 2007).
pIC50: −log10 of the molar value. “And” between values parts separate entries of the source, which are not always exact repeats. Equal entries are not always repeated.

Experiments:
human DGAT1 = target: T1, human DGAT1 (Homo sapiens, UniProt O75907); test: DGAT Scintillation Proximity Assay (SPA) with membranes of insect cells expressing human flagtag DGAT1; format: biochemical; settings: read-out: hDGAT1 IC50
T1 construct: made in house; host or cells: insect cells (sf9, sf21 or High Five) infected with baculovirus; total cell membranes
T1 sequence (O75907 1-488): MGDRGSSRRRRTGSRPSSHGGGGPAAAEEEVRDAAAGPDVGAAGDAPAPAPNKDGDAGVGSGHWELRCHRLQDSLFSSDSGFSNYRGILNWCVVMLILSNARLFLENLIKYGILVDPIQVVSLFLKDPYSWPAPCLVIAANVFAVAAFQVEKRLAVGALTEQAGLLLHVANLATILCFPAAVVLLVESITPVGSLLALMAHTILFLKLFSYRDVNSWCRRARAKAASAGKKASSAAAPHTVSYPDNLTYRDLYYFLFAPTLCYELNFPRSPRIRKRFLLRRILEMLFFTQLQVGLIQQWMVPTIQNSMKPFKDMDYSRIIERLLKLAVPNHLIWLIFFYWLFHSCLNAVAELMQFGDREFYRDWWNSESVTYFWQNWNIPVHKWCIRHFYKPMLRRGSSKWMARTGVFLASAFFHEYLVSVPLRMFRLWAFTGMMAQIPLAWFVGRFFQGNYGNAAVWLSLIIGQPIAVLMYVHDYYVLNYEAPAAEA
How it was run: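 Membranes (0.2 μg/well) from insect cells expressing human flag-tagged DGAT1 incubated with 10 μM compound and 200 μM dioleoyl glycerol substrate; mercuric chloride as inhibition control. Reaction stopped with WGA SPA beads in mercuric chloride, overnight bead coupling, then scintillation proximity signal read.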

Row | SMILES | pIC50 (human DGAT1) | melting point
1 | Cc1nc(N)c2c(n1)OC(C)(C)C(c1ccc([C@H]3CC[C@H](Cc4n[nH]c(=O)[nH]4)CC3)cc1)=N2 [Example 2-147] | 7.00 to 8.00 | > 230 °C
2 | CC1(C)Oc2ncnc(N)c2N=C1c1ccc([C@H]2CC[C@H](CN3CCNCC3)CC2)cc1 [Example 2-244] | 7.00 to 8.00 | 208 to 209 °C
3 | CC1(C)Oc2ncnc(N)c2N=C1c1ccc([C@H]2CC[C@H](C(=O)N3CCCCC3)CC2)cc1 [Example 2-236] | 7.00 to 8.00 | 220 to 224 °C
4 | CC1(C)Oc2ncnc(N)c2N=C1c1ccc([C@H]2CC[C@H](CN3CCN(C(N)=O)CC3)CC2)cc1 [Example 2-246] | 7.00 to 8.00 | 158 to 160 °C
5 | CC1(C)Oc2ncnc(N)c2N=C1c1ccc([C@H]2CC[C@H](Cc3nc4cc(F)ccc4[nH]3)CC2)cc1 [Example 2-124] | 7.00 to 8.00 | > 230 °C
6 | CC1(C)Oc2ncnc(N)c2N=C1c1cccc(Cl)c1 [Example 5] | < 7.00 | 117 to 133 °C and 117.2 to 133.4 °C
7 | CC1(C)Oc2ncnc(N)c2N=C1c1ccc([C@H]2CC[C@H](CN3CCC(C(N)=O)CC3)CC2)cc1 [Example 2-251] | 7.00 to 8.00 | 159 to 164 °C
8 | CCOc1ccc(C2=Nc3c(N)ncnc3OC2(C)C)cc1 [Example 2-38] | < 7.00 | 189 to 190 °C
9 | Nc1ncnc2c1NC(c1ccc(Cl)c(Cl)c1)CO2 (stereo not shown) [Example 1-36] | < 7.00 | 198 to 200 °C
10 | Cc1nc(N)c2c(n1)OC(C)(C)C(c1ccc([C@H]3CC[C@H](CNC(=O)CO)CC3)c(Cl)c1)=N2 [Example 6-2] | 7.00 to 8.00 | 229 to 232 °C
11 | Cc1nc(N)c2c(n1)OC(C)(C)C(c1ccc([C@H]3CC[C@H](CCC(=O)NC(C)(C)CO)CC3)cc1)=N2 [Example 2-193] | 7.00 to 8.00 | > 240 °C
12 | Cc1ncc(C[C@H]2CC[C@H](c3ccc(C4=Nc5c(N)ncnc5OC4(C)C)cc3)CC2)s1 [Example 2-118] | 7.00 to 8.00 | 215 to 216 °C
13 | Cc1nc(N)c2c(n1)OC(C)(C)C(c1ccc([C@H]3CC[C@H](CC(=O)NS(C)(=O)=O)CC3)cc1)=N2 [Example 2-134] | > 8.00 | 225 to 226 °C
14 | CCNC(=O)C=C1CCC(c2ccc(C3=Nc4c(N)ncnc4OC3(C)C)cc2)CC1 (stereo not shown) [Example 2-47] | 7.00 to 8.00 | 229 to 230 °C
15 | CC(C(=O)O)[C@H]1CC[C@H](c2ccc(C3=Nc4c(N)ncnc4OC3(C)C)cc2)CC1 (stereo partly shown) [Example 2-69] | > 8.00 | > 250 °C
16 | CC1(C)Oc2ncnc3[nH]c(=O)n(c23)C1c1ccc(Br)cc1 (stereo not shown) [Example 2-11] | < 7.00 | > 220 °C
17 | COc1ccc(C2Nc3c(N)ncnc3OC2(C)C)cc1 (stereo not shown) [Example 2-24] | < 7.00 | 225 to 226 °C
18 | CC1(C)Oc2ncnc(N)c2N=C1c1ccc([C@H]2CC[C@H](CCN3CCC(O)(c4ccccc4)CC3)CC2)cc1 [Example 2-85] | < 7.00 | 115 to 116 °C
19 | Cc1nc(N)c2c(n1)OC(C)(C)C(c1ccc([C@H]3CC[C@H](Cc4nc(=O)[nH]n4C)CC3)cc1)=N2 [Example 2-169] | 7.00 to 8.00 | > 230 °C
20 | CC1(C)Oc2nc(C(F)(F)F)nc(N)c2N=C1c1ccc([C@H]2CC[C@H](CNC(=O)CO)CC2)c(Cl)c1 [Example 6-24] | 7.00 to 8.00 | 213 to 216 °C
21 | CC1(C)Oc2ncnc(N)c2N=C1c1ccc2c(c1)CC(C(=O)O)C2 (stereo not shown) [Example 2-71] | < 7.00 | > 250 °C
22 | Cc1nc(N)c2c(n1)OC(C)(C)C(c1ccc([C@H]3CC[C@H](CC(=O)NCC(N)=O)CC3)cc1)=N2 [Example 2-142] | 7.00 to 8.00 | 142 to 144 °C
23 | CC1(C)Oc2ncnc(N)c2N=C1c1ccc(C2CCN(C(=O)C(=O)O)CC2)cc1 [Example 3] | 7.00 to 8.00 | 188 to 190 °C and 188.8 to 190.9 °C
24 | CC1(C)Oc2ncnc(N)c2N=C1c1ccc([C@H]2CC[C@H](C(=O)N3CCCC3)CC2)cc1 [Example 2-235] | 7.00 to 8.00 | 201 to 202 °C
25 | CCCCc1ccc(C2=Nc3c(N)ncnc3OC2)cc1 [Example 1-21] | < 7.00 | 183 to 186 °C
26 | CC1(C)Oc2ncnc(N)c2NC1c1ccc(Cl)cc1 (stereo not shown) [Example 2-19] | < 7.00 | > 230 °C
27 | Cc1nc(N)c2c(n1)OC(C)(C)C(c1ccc([C@H]3CC[C@H](CNC(=O)CO)CC3)c(F)c1)=N2 [Example 6-10] | 7.00 to 8.00 | 212 to 214 °C

Row | SMILES | pIC50 (human DGAT1) | melting point
28 | CC1(C)Oc2nc(C(F)(F)F)nc(N)c2N=C1c1ccc([C@H]2CC[C@H](CNC(=O)CO)CC2)cc1 [Example 2-154] | 7.00 to 8.00 | 229 to 233 °C
29 | Nc1ncnc2c1N=C(C1CCCCC1)CO2 [Example 1-22] | < 7.00 | 142 °C
30 | Nc1ncnc2c1N=C(c1ccccn1)CO2 [Example 1-16] | < 7.00 | 215 °C
31 | CC1(C)Oc2ncnc(N)c2N=C1c1ccc2c(c1)CC(CC(=O)O)C2 (stereo not shown) [Example 2-72] | 7.00 to 8.00 | > 250 °C
32 | Cc1nc(N)c2c(n1)OC(C)(C)C(c1ccc([C@H]3CC[C@H](CNC(N)=O)CC3)c(Cl)c1)=N2 [Example 6-23] | 7.00 to 8.00 | 160 to 166 °C
33 | Cc1nc(N)c2c(n1)OC(C)(C)C(c1ccc([C@H]3CC[C@H](CNC(=O)N(C)C)CC3)c(Cl)c1)=N2 [Example 6-16] | < 7.00 | > 250 °C
34 | Nc1ncnc2c1NC(c1ccc(Br)cc1)C1(CCCC1)O2 (stereo not shown) [Example 2-14] | < 7.00 | 226 to 233 °C
35 | Cc1nc(N)c2c(n1)OC(C)(C)C(c1ccc([C@H]3CC[C@H](CC(=O)N4CC(O)C(O)C4)CC3)cc1)=N2 (stereo partly shown) [Example 2-136] | 7.00 to 8.00 | 210 to 211 °C
36 | Cc1nc(N)c2c(n1)OC(C)(C)C(c1ccc(C3CC(CC(=O)O)C3)cc1)=N2 (stereo not shown) [Example 2-146] | 7.00 to 8.00 | > 250 °C
37 | Nc1cccc2c1N=C(c1ccc(Br)cc1)CO2 [Example 1-15] | < 7.00 | 75 to 77 °C
38 | Cc1nc(N)c2c(n1)OC(C)(C)C(c1ccc([C@H]3CC[C@H](CNC(=O)C(C)(C)O)CC3)c(Cl)c1)=N2 [Example 6-18] | 7.00 to 8.00 | > 250 °C
39 | Cc1nc(N)c2c(n1)OC(C)(C)C(c1ccc([C@H]3CC[C@H](Cc4noc(=O)[nH]4)CC3)c(F)c1)=N2 [Example 6-11] | 7.00 to 8.00 | > 282 °C
40 | Cc1nc(N)c2c(n1)OC(C)(C)C(c1ccc([C@H]3CC[C@H](c4nn[nH]n4)CC3)cc1)=N2 [Example 2-263] | > 8.00 | > 250 °C
41 | Nc1ncnc2c1N=C(c1ccc(Cl)cc1Cl)CO2 [Example 1-28] | < 7.00 | 218 to 220 °C
42 | CC1(C)Oc2ncnc(N)c2N=C1c1ccc([C@H]2CC[C@H](Cc3cc(O)[nH]n3)CC2)cc1 [Example 2-59] | 7.00 to 8.00 | > 250 °C
43 | CC1(C)Oc2ncnc(N)c2N=C1c1ccc([C@H]2CC[C@H](C(=O)CO)CC2)cc1 [Example 2-254] | 7.00 to 8.00 | 213 to 214 °C
44 | CC1(C)Oc2ncnc(N)c2N=C1c1ccc([C@H]2CC[C@H](CC(O)C(F)(F)F)CC2)cc1 (stereo partly shown) [Example 2-80] | 7.00 to 8.00 | 271 to 272 °C
45 | Cc1nc(N)c2c(n1)OCC(c1ccc(Br)cc1)N2 (stereo not shown) [Example 1-34] | < 7.00 | 232 to 233 °C
46 | CC1(C)Oc2ncnc(N)c2N=C1c1ccc([C@H]2CC[C@H](Cc3nc4cc(Cl)ccc4[nH]3)CC2)cc1 [Example 2-122] | 7.00 to 8.00 | > 230 °C
47 | CC1(C)Oc2ncnc(N)c2N=C1c1ccc([C@H]2CC[C@H](Cc3cnc(C4CC4)[nH]3)CC2)cc1 [Example 2-120] | 7.00 to 8.00 | 226 to 227 °C
48 | CCOC(=O)N1CCC(NC[C@H]2CC[C@H](c3ccc(C4=Nc5c(N)ncnc5OC4(C)C)cc3)CC2)CC1 [Example 2-115] | < 7.00 | 127 to 135 °C
49 | Cc1nc(N)c2c(n1)OC(C)(C)C(c1ccc([C@H]3CC[C@H](CNC(=O)OCC(C)C)CC3)c(Cl)c1)=N2 [Example 6-14] | 7.00 to 8.00 | 205 to 209 °C
50 | CC1(C)Oc2ncnc(N)c2NC1c1ccc([C@H]2CC[C@H](CS(N)(=O)=O)CC2)cc1 (stereo partly shown) [Example 2-221] | < 7.00 | > 250 °C
51 | CC(C)NC[C@H]1CC[C@H](c2ccc(C3=Nc4c(N)ncnc4OC3(C)C)cc2)CC1 [Example 2-114] | 7.00 to 8.00 | 250 °C
52 | CC1(C)Oc2nc(C(F)(F)F)nc(N)c2N=C1c1ccc([C@H]2CC[C@H](CC(=O)O)CC2)c(Cl)c1 [Example 6-20] | > 8.00 | 247 to 248 °C
53 | Cc1nc(N)c2c(n1)OC(C)(C)C(c1ccc([C@H]3CC[C@H](Cc4nn[nH]n4)CC3)cc1)=N2 [Example 2-137] | > 8.00 | > 250 °C
